Source: patent US20250352548A1, “BTK Reducing Molecules for Treatment of Cancers and Immune System Disorders” (Accutar Biotechnology, Inc., priority 2022, published 2025)

What was measured:
[1] = test system: engineered REC1 PLCγ2^S707Y knock-in tumors; experiment: Mouse xenograft tumor model, REC1 PLCγ2^S707Y knock-in; format: in vivo; conditions: for TGI: 14 days after administration, S707Y tumors
Method: (§1) Parental REC1 cells (ATCC), engineered REC1 PLCγ2^S707Y cells, and engineered REC-1 PLCγ2^L845F cells, as described in Example 1, were maintained in vitro as monolayer culture in RPMI1640 medium supplemented with 10% fetal bovine serum and 1× Penicillin Streptomycin at 37° C. in an atmosphere of 5% CO2 in air. The tumor cells were routinely subcultured twice weekly. The cells growing in an exponential growth phase were harvested and counted for tumor inoculation. Each mouse was inoculated subcutaneously at the armpit of the right flank with 5×10^6 tumor cells in 0.1 mL of PBS mixed with 0.1 mL matrigel for tumor development. Treatment of the BTK degrader of Formula I-D (1.5 mg/kg, 3 mg/kg, 6 mg/kg, or 15 mg/kg, PO), Ibrutinib (25 mg/kg, PO), or vehicle (PO) started when the average tumor size reached approximately 100 mm^3. Mice were assigned into groups using an Excel-based randomization software performing stratified randomization based upon their tumor volumes. Tumor sizes were measured 3 times weekly in two dimensions using a caliper, and the volume was expressed in mm^3 using the formula: V=0.5 a×b^2 where a and b are the long and short diameters of the tumor, respectively. Tumor growth inhibition (TGI) was calculated for each group using the formula: TGI (%)=[1−(Ti−T0)/(Vi−V0)]×100; Ti is the average tumor volume of a treatment group on a given day, T0 is the average tumor volume of the treatment group on the first day of treatment, Vi is the average tumor volume of the vehicle control group on the same day with Ti, and V0 is the average tumor volume of the vehicle group on the first day of treatment.

[2] = test system: engineered REC1 PLCγ2^L845F knock-in tumors; experiment: Mouse xenograft tumor model, REC1 PLCγ2^L845F knock-in; format: in vivo; conditions: for TGI: 14 days after administration, L845F tumors
Method: as §1

[3] = test system: engineered REC-1 PLCγ2^L845F cells; experiment: Cancer cell growth in vitro, CellTiter-Glo, 6 days; format: cell-based; conditions: 6 days after administration, compared to Ibrutinib (FIG. 1C)
Method: (§2) Parental REC1 cells were obtained from the American Type Culture Collection (ATCC). PLCγ2 gene in REC-1 cell line was edited using the CRISPR-Cas9 technology to create a S to Y point mutation at residue 707 of PLCγ2 protein, or L to F point mutation at residue 845 of PLCγ2 protein. For gene editing, first, gRNA complex of PLCγ2 S707Y or PLCγ2 L845F was prepared with Alt-R CRISPR-Cas9 tracrRNA and crRNA PLCγ2 S707Y (5′-[…]-3′) or PLCγ2 L845F (5′-[…]-3′) (IDT-Integrated DNA Technologies), and then ribonucleoprotein (RNP) complex of PLCγ2 S707Y or PLCγ2 L845F was prepared with respective gRNA complex and Alt-R S.p. Cas9 Nuclease V3 (IDT-Integrated DNA Technologies). […]
(§3) Parental REC1 cells (ATCC), engineered REC1 PLCγ2^S707Y cells, or engineered REC-1 PLCγ2^L845F cells, were plated in 96-well plates at 8,000 cells/well in 90 μl of RPMI1640 growth medium containing 10% heat-inactivated FBS and 1× Penicillin Streptomycin, and then incubated at 37° C. overnight. […] The plates were then incubated at room temperature for 10 minutes and luminescence was recorded by EnSpire plate reader (PerkinElmer).

[4] = test system: engineered REC1 PLCγ2^S707Y cells; experiment: Cancer cell growth in vitro, CellTiter-Glo, 6 days; format: cell-based; conditions: 6 days after administration, compared to Ibrutinib (FIG. 1B)
Method: as §2, §3

Q: What does the source list for C=CC(=O)N1CCC[C@@H](n2nc(-c3ccc(Oc4ccccc4)cc3)c3c(N)ncnc32)C1 [Ibrutinib, reference compound]?
A: TGI ([1]; Ibrutinib 25 mg/kg PO): 5%; TGI ([2]; Ibrutinib 25 mg/kg PO): 12%

Q: With COc1ccc(F)cc1C(=O)NCc1ccc(-c2nn(-c3ccc(N4CCC(CN5CCN(c6ccc7c(c6)CN(C6CCC(=O)NC6=O)C7=O)CC5)CC4)c(F)c3)c3ncnc(N)c23)cc1 (stereo not drawn) [Formula I-D] as the compound, how does the cell growth inhibition [3] read?
A: The cell growth inhibition was “significantly inhibited cell growth”.

Q: What about the cell growth inhibition [4] of the same compound?
A: The cell growth inhibition was “significantly inhibited cell growth”.

Q: And the TGI ([1]; 3 mg/kg PO)?
A: Its TGI is 61%.

Q: And the TGI ([1]; 6 mg/kg PO)?
A: The TGI was 74%.

Q: And the TGI ([1]; 15 mg/kg PO)?
A: The TGI was 86%.

Q: What about the “tumor growth inhibition vs Ibrutinib” value ([1]; REC1 PLCγ2^S707Y knock-in mice, PO, 14 days after administration (FIG. 2B)) of the same compound?
A: The value was “significantly inhibited tumor growth”.

Q: And the TGI ([2]; 3 mg/kg PO)?
A: The TGI was 63%.

Q: And the TGI ([2]; 6 mg/kg PO)?
A: Its TGI is 81%.

Q: What about the TGI ([2]; 15 mg/kg PO) of the same compound?
A: Its TGI is 88%.

Q: And the “tumor growth inhibition vs Ibrutinib” value ([2]; REC-1 PLCγ2^L845F knock-in mice, PO, 14 days after administration (FIG. 2C))?
A: Its value is “significantly inhibited tumor growth”.
